Measurements as given in ChEMBL document CHEMBL2440076, “New triarylpyrazoles as broad-spectrum anticancer agents: design, synthesis, and biological evaluation” (Eur J Med Chem, 2013).

How the values were obtained:
Type in all cases: functional
[1] = tested on: LOX IMVI; assay: Growth inhibition of human LOXIMVI cells assessed as cell growth at 3X10'-5 M after 48 hrs by sulforhodamine B assay; settings: read-out: Activity
[2] = tested on: HOP-62; assay: Growth inhibition of human HOP62 cells assessed as cell growth at 3X10'-8 M after 48 hrs by sulforhodamine B assay; settings: HOP-62, 48 h, read-out: Activity
[3] = tested on: NCI-H23; assay: Growth inhibition of human NCI-H23 cells assessed as cell growth at 3X10'-6 M after 48 hrs by sulforhodamine B assay; settings: NCI-H23, 48 h, read-out: Activity
[4] = Growth inhibition of human HCC2998 cells assessed as cell growth at 3X10'-9 M after 48 hrs by sulforhodamine B assay; settings: HCC 2998, 48 h, read-out: Activity
[5] = tested on: ACHN; assay: Growth inhibition of human ACHN cells assessed as cell growth at 3X10'-5 M after 48 hrs by sulforhodamine B assay; settings: read-out: Activity
[6] = tested on: ACHN; assay: Growth inhibition of human ACHN cells assessed as cell growth at 3X10'-6 M after 48 hrs by sulforhodamine B assay; settings: read-out: Activity
[7] = tested on: MDA-MB-468; assay: Growth inhibition of human MDA-MB-468 cells assessed as cell growth at 3X10'-5 M after 48 hrs by sulforhodamine B assay; settings: MDA-MB-468, 48 h, read-out: Activity
[8] = tested on: RXF 393; assay: Growth inhibition of human RXF393 cells assessed as cell growth at 3X10'-7 M after 48 hrs by sulforhodamine B assay; settings: RXF 393, 48 h, read-out: Activity
[9] = tested on: Malme-3M; assay: Growth inhibition of human MALME-3M cells assessed as cell growth at 3X10'-5 M after 48 hrs by sulforhodamine B assay; settings: read-out: Activity
[10] = tested on: MDA-MB-435; assay: Growth inhibition of human MDA-MB-435 cells assessed as cell growth at 3X10'-9 M after 48 hrs by sulforhodamine B assay; settings: MDA-MB-435, 48 h, read-out: Activity
[11] = tested on: SK-MEL-28; assay: Growth inhibition of human SK-MEL-28 cells assessed as cell growth at 3X10'-5 M after 48 hrs by sulforhodamine B assay; settings: SK-MEL-28, 48 h, read-out: Activity
[12] = Growth inhibition of human HCC2998 cells assessed as cell growth at 3X10'-7 M after 48 hrs by sulforhodamine B assay; settings: HCC 2998, 48 h, read-out: Activity
[13] = tested on: MOLT-4; assay: Growth inhibition of human MOLT4 cells assessed as cell growth at 3X10'-5 M after 48 hrs by sulforhodamine B assay; settings: MOLT-4, 48 h, read-out: Activity
[14] = tested on: IGROV-1; assay: Growth inhibition of human IGROV1 cells assessed as cell growth at 3X10'-5 M after 48 hrs by sulforhodamine B assay; settings: IGROV-1, 48 h, read-out: Activity
[15] = tested on: K562; assay: Growth inhibition of human K562 cells assessed as cell growth at 3X10'-8 M after 48 hrs by sulforhodamine B assay; settings: K562, 48 h, read-out: Activity
[16] = tested on: IGROV-1; assay: Growth inhibition of human IGROV1 cells assessed as cell growth at 3X10'-9 M after 48 hrs by sulforhodamine B assay; settings: IGROV-1, 48 h, read-out: Activity
[17] = Growth inhibition of human NCI-ADR-RES cells assessed as cell growth at 3X10'-9 M after 48 hrs by sulforhodamine B assay; settings: read-out: Activity
[18] = tested on: CCRF-CEM; assay: Growth inhibition of human CCRF-CEM cells assessed as cell growth at 3X10'-7 M after 48 hrs by sulforhodamine B assay; settings: read-out: Activity
[19] = tested on: RPMI-8226; assay: Growth inhibition of human RPMI8226 cells assessed as cell growth at 3X10'-8 M after 48 hrs by sulforhodamine B assay; settings: RPMI-8226, 48 h, read-out: Activity
[20] = Growth inhibition of human HCC2998 cells assessed as cell growth at 3X10'-5 M after 48 hrs by sulforhodamine B assay; settings: HCC 2998, 48 h, read-out: Activity
[21] = tested on: NCI-H23; assay: Growth inhibition of human NCI-H23 cells assessed as cell growth at 3X10'-5 M after 48 hrs by sulforhodamine B assay; settings: NCI-H23, 48 h, read-out: Activity
[22] = tested on: SNB-19; assay: Growth inhibition of human SNB19 cells assessed as cell growth at 3X10'-6 M after 48 hrs by sulforhodamine B assay; settings: SNB-19, 48 h, read-out: Activity
[23] = tested on: TK-10; assay: Growth inhibition of human TK10 cells assessed as cell growth at 3X10'-5 M after 48 hrs by sulforhodamine B assay; settings: TK-10, 48 h, read-out: Activity
[24] = tested on: HL-60(TB); assay: Growth inhibition of human HL-60(TB) cells assessed as cell growth at 3X10'-6 M after 48 hrs by sulforhodamine B assay; settings: HL-60, 48 h, read-out: Activity
[25] = tested on: KM12; assay: Growth inhibition of human KM12 cells assessed as cell growth at 3X10'-5 M after 48 hrs by sulforhodamine B assay; settings: KM12, 48 h, read-out: Activity
[26] = tested on: HOP-62; assay: Growth inhibition of human HOP62 cells assessed as cell growth at 3X10'-5 M after 48 hrs by sulforhodamine B assay; settings: HOP-62, 48 h, read-out: Activity
[27] = tested on: BT-549; assay: Growth inhibition of human BT549 cells assessed as cell growth at 3X10'-5 M after 48 hrs by sulforhodamine B assay; settings: BT-549, 48 h, read-out: Activity
[28] = tested on: NCI-H522; assay: Growth inhibition of human NCI-H522 cells assessed as cell growth at 3X10'-6 M after 48 hrs by sulforhodamine B assay; settings: NCI-H522, 48 h, read-out: Activity
[29] = tested on: NCI-H522; assay: Growth inhibition of human NCI-H522 cells assessed as cell growth at 3X10'-5 M after 48 hrs by sulforhodamine B assay; settings: NCI-H522, 48 h, read-out: Activity
[30] = tested on: LOX IMVI; assay: Growth inhibition of human LOXIMVI cells assessed as cell growth at 3X10'-6 M after 48 hrs by sulforhodamine B assay; settings: read-out: Activity
[31] = tested on: SN12C; assay: Growth inhibition of human SN12C cells assessed as cell growth at 3X10'-5 M after 48 hrs by sulforhodamine B assay; settings: read-out: Activity
[32] = tested on: OVCAR-5; assay: Growth inhibition of human OVCAR5 cells assessed as cell growth at 3X10'-9 M after 48 hrs by sulforhodamine B assay; settings: OVCAR-5, 48 h, read-out: Activity
[33] = tested on: A498; assay: Growth inhibition of human A498 cells assessed as cell growth at 3X10'-8 M after 48 hrs by sulforhodamine B assay; settings: A498, 48 h, read-out: Activity
[34] = tested on: SNB-19; assay: Growth inhibition of human SNB19 cells assessed as cell growth at 3X10'-8 M after 48 hrs by sulforhodamine B assay; settings: SNB-19, 48 h, read-out: Activity
[35] = tested on: OVCAR-4; assay: Growth inhibition of human OVCAR4 cells assessed as cell growth at 3X10'-6 M after 48 hrs by sulforhodamine B assay; settings: OVCAR-4, 48 h, read-out: Activity
[36] = tested on: NCI-H226; assay: Growth inhibition of human NCI-H226 cells assessed as cell growth at 3X10'-9 M after 48 hrs by sulforhodamine B assay; settings: NCI-H226, 48 h, read-out: Activity
[37] = Growth inhibition of human HCC2998 cells assessed as cell growth at 3X10'-6 M after 48 hrs by sulforhodamine B assay; settings: HCC 2998, 48 h, read-out: Activity

Compound	growth at 30 µM [1]	growth at 0.03 µM [2]	growth at 3 µM [3]	growth at 0.003 µM [4]	growth at 30 µM [5]	growth at 3 µM [6]	growth at 30 µM [7]	growth at 0.3 µM [8]	growth at 30 µM [9]	growth at 0.003 µM [10]	growth at 30 µM [11]	growth at 0.3 µM [12]	growth at 30 µM [13]	growth at 30 µM [14]	growth at 0.03 µM [15]	growth at 0.003 µM [16]	growth at 0.003 µM [17]	growth at 0.3 µM [18]	growth at 0.03 µM [19]	growth at 30 µM [20]	also measured
O=C(Nc1cccc(-n2cc(-c3ccncc3)c(-c3ccc(Cl)c(O)c3)n2)c1)Nc1ccc(Cl)c(C(F)(F)F)c1	-91%	100%	1%	100%	2%	8%	-43%	69%	-70%	97%	-87%	95%	-32%	-47%	105%	98%	102%	80%	89%	-64%	growth at 30 µM [21]: -55%; growth at 3 µM [22]: 9%; growth at 30 µM [23]: -19%; growth at 3 µM [24]: 6%; growth at 30 µM [25]: -70%; growth at 30 µM [26]: -17%; growth at 30 µM [27]: -19%; growth at 3 µM [28]: -11%; growth at 30 µM [29]: -55%; growth at 3 µM [30]: -71%; growth at 30 µM [31]: -6%; growth at 0.003 µM [32]: 93%; growth at 0.03 µM [33]: 91%; growth at 0.03 µM [34]: 94%; growth at 3 µM [35]: 17%; growth at 0.003 µM [36]: 88%; growth at 3 µM [37]: 7%
COc1cc(-c2nn(-c3cccc(NC(=O)Nc4ccc(Cl)c(C(F)(F)F)c4)c3)cc2-c2ccncc2)ccc1Cl	-72%	95%	11%	102%	-4%	8%	-38%	88%	-47%	98%	-70%	101%	-15%	-37%	105%	110%	104%	93%	97%	-48%	growth at 30 µM [21]: -16%; growth at 3 µM [22]: 19%; growth at 30 µM [23]: -15%; growth at 3 µM [24]: 2%; growth at 30 µM [25]: -79%; growth at 30 µM [26]: -51%; growth at 30 µM [27]: -41%; growth at 3 µM [28]: 8%; growth at 30 µM [29]: -21%; growth at 3 µM [30]: 13%; growth at 30 µM [31]: -19%; growth at 0.003 µM [32]: 99%; growth at 0.03 µM [33]: 93%; growth at 0.03 µM [34]: 93%; growth at 3 µM [35]: 19%; growth at 0.003 µM [36]: 99%; growth at 3 µM [37]: 26%
O=C(Nc1cccc(-n2cc(-c3ccncc3)c(-c3ccc(Cl)c(O)c3)n2)c1)Nc1cccc(C(F)(F)F)c1	-50%	98%	36%	97%	7%	21%	-27%	88%	-10%	102%	3%	106%	8%	3%	92%	98%	99%	94%	98%	1%	growth at 30 µM [21]: 6%; growth at 3 µM [22]: 36%; growth at 30 µM [23]: 7%; growth at 3 µM [24]: 41%; growth at 30 µM [25]: 1%; growth at 30 µM [26]: 9%; growth at 30 µM [27]: -18%; growth at 3 µM [28]: 25%; growth at 30 µM [29]: -13%; growth at 3 µM [30]: 44%; growth at 30 µM [31]: 16%; growth at 0.003 µM [32]: 95%; growth at 0.03 µM [33]: 83%; growth at 0.03 µM [34]: 98%; growth at 3 µM [35]: 49%; growth at 0.003 µM [36]: 98%; growth at 3 µM [37]: 76%
O=C(Nc1cccc(-n2cc(-c3ccncc3)c(-c3ccc(Cl)c(O)c3)n2)c1)Nc1ccc(Cl)c(Cl)c1	-77%	96%	11%	95%	1%	5%	-18%	83%	-15%	95%	-27%	115%	6%	5%	102%	103%	100%	90%	102%	-27%	growth at 30 µM [21]: -1%; growth at 3 µM [22]: 23%; growth at 3 µM [24]: 16%; growth at 30 µM [25]: -56%; growth at 30 µM [26]: -13%; growth at 30 µM [27]: -12%; growth at 3 µM [28]: 14%; growth at 30 µM [29]: -13%; growth at 3 µM [30]: 3%; growth at 30 µM [31]: 3%; growth at 0.003 µM [32]: 96%; growth at 0.03 µM [33]: 95%; growth at 0.03 µM [34]: 98%; growth at 3 µM [35]: 28%; growth at 0.003 µM [36]: 98%; growth at 3 µM [37]: 47%
COc1cc(-c2nn(-c3cccc(NC(=O)c4ccc(Cl)c(C(F)(F)F)c4)c3)cc2-c2ccncc2)ccc1Cl	16%	96%	59%	95%	32%	47%	9%	89%	-6%	95%	29%	101%	24%	8%	100%	94%	97%	101%	100%	29%	growth at 30 µM [21]: 17%; growth at 3 µM [22]: 66%; growth at 30 µM [23]: 44%; growth at 3 µM [24]: 58%; growth at 30 µM [25]: 17%; growth at 30 µM [26]: 35%; growth at 30 µM [27]: 29%; growth at 3 µM [28]: 12%; growth at 30 µM [29]: -7%; growth at 3 µM [30]: 39%; growth at 30 µM [31]: 35%; growth at 0.003 µM [32]: 96%; growth at 0.03 µM [33]: 89%; growth at 0.03 µM [34]: 96%; growth at 3 µM [35]: 62%; growth at 0.003 µM [36]: 92%; growth at 3 µM [37]: 63%
